Laboratory results published in patent publication US11559527B2 (priority 2017, dated 2023).

Columns and labels:
Type in all cases: cell-based, Human
MCF7 breast cancer cells = assay: Tumorsphere formation assay, MCF7; conditions: five days, vs vehicle
Procedure: One of the gold standard techniques for the study and identification of CSCs is the sphere formation assay, an in vitro culture system that enriches for CSCs. Under these anchorage-independent culture conditions, CSCs preferentially form the so-called tumorspheres, whereas more differentiated cells die rapidly.
TUMORSPHERE FORMATION ASSAY: A single cell suspension was prepared using enzymatic (1× Trypsin-EDTA, T3924, Sigma Aldrich), and manual disaggregation (25 gauge needle). […] After 5 days of culture in a humidified incubator at 37° C., tumorspheres bigger than 50 μm were counted using an eye piece graticule.

MCF7 cells [1] = assay: DAPI staining (viable cells in suspension; binucleated cells)
Procedure: The second chart in FIG. 10B sets forth the results. […] One possible explanation to that observed behavior is that they are becoming more quiescent. […] Such phenomenon is typical of anti-mitotic drugs.
The surviving fraction after 2 days and 5 days of growth was analyzed by FACS. MCF7 cells were either trypsinised or spun down and trypsinised and incubated with CD24 (IOTest CD24-PE, Beckman Coulter) and CD44 (APC mouse anti-human CD44, 559942, BD Pharmingen) for 15 minutes on ice. Cells were then rinsed twice in PBS, spun down, and resuspended with DAPI dye (D1306, Molecular probes) at 3 μM in PBS for 10 minutes. Samples were then analyzed by FACS (Fortessa, BD Bioscence). Only the live cell population, identified using the DAPI staining, was analyzed for CD24/CD44 expression. Data were analyzed using FlowJo software.

Wnt signaling = assay: Luciferase reporter assay MCF7-GFP-TCF/LEF(luc); conditions: 50 μM, 2 and 5 days
From the text: (§1) Mitochondrial fusion and fission may also have an impact in signaling pathways that regulate stem cell proliferation and survival. […] A range of reporter MCF7-GFP cell lines were generated, including MCF7-GFP-GLI(luc), MCF7-GFP-Rbp/Jk(luc), MCF7-GFP-SMAD(luc) and MCF7-GFP-TCF/LEF(luc), to assess Hedgehog signaling, Notch signaling, TGFβ signaling, and Wnt signaling, respectively. […] The data is shown in the four data plots in FIG. 9.
(§2) LUCIFERASE ASSAY: The Cignal Lenti reporter assay (luc) was used to monitor the activity of several signalling pathways in MCF7-GFP cells as explained previously. Luciferase Assay System (E1501, Promega) was performed according to manufacturer's instructions. 1×10^4 MCF7 […] were seeded in black-walled 96 well plates. When cells were attached, drug treatments were added for 18, 48 hours and 5 days. After treatment, Luciferase Assay was performed according to manufacturer's instructions and light signal was acquired in the Xenogen VivoVision IVIS Lumina. Results were normalized by SRB staining of cells grown in 96-well plates in parallel.
(§3) SULFORHODAMINE B (SRB) ASSAY: SRB (S9012, Sigma) measures total biomass by staining cellular proteins. […] Absorbance was spectrophotometrically measured at 562 nm in a FluoStar Omega plate reader (BMG Labtech). […]

MCF7 cells [2] = assay: Bradford assay (protein content as indicator of cell viability); conditions: 2 days
Procedure: The inventors sought to evaluate whether mDIVI-1-induced inhibition of DRP1 has repercussion on the viability of MCF7 cells. […] Similar results were obtained using the Bradford assay, which measures protein content, as an indicator of cell viability.
EXTRACELLULAR FLUX […] AND BRADFORD ASSAY: Extracellular acidification rate (ECAR) and oxygen consumption rate (OCR) were measured in a XF96 Extracellular Flux Analyzer (Seahorse Biosciences). Briefly, 1×10^4 MCF7 cells per well were seeded in XF96 plates and incubated with complete medium. When cells were attached, mDIVI-1 and vehicle treatments were added. Six replicates were run for each condition. After 48 hours, un-buffered DMEM XF medium supplemented with 2 mM glutamine (pH 7.4) was added to the cells, and placed in a 37° C. CO2-free incubator for 1 hour. Ten mM glucose, 1 μM oligomycin and 100 mM 2-deoxyglucose (2-DG) were injected into the media at different time points and ECAR was measured. Likewise, ECAR and OCR were quantified using un-buffered DMEM XF medium supplemented with 2 mM glutamine, 2 mM sodium pyruvate and 10 mM glucose. One μM oligomycin, 0.9 μM FCCP and 1 μM rotenone and antimycin A were injected into the media at different time points and OCR and ECAR were measured. […] All parameters were calculated according to manufacturer.

MCF7 cells [3] = assay: Extracellular flux analysis (ECAR and OCR, XF96)
Procedure: Inhibition of mitochondrial fission by m-DIVI-1 or a derivative thereof also blocks the normal functioning of mitochondrial metabolism in CSCs. Indeed, it has been shown that a DRP1 mutant that inhibits mitochondrial fission increases glucose uptake and lactate production, and decreases ATP production. […] The extracellular acidification rate (ECAR) and the oxygen consumption rate (OCR) were measured using an XF96 Extracellular Flux Analyser, and FIGS. 5A, 5B, and 6A-6C show the data. Basal glycolysis, glycolytic capacity and glycolytic reserve were calculated after addition of glucose, oligomycin and 2-deoxyglucose (2DG) into the media. […] Thus, to measure basal respiration, ATP production, maximal respiration and spare respiratory capacity, oxygen consumption was also calculated after addition of oligomycin, FCCP and antimycin/rotenone into glucose-containing media. […] The OCR versus ECAR graph was also plotted to have an indication of the metabolic state of the cell. […] Thus, mDIVI-1-induced inhibition of mitochondrial fission functionally targets oxidative phosphorylation and also the glycolytic function of MCF7 cells, transforming them into cells with lower mitochondrial energetic needs.
EXTRACELLULAR FLUX […] AND BRADFORD ASSAY: Extracellular acidification rate (ECAR) and oxygen consumption rate (OCR) were measured in a XF96 Extracellular Flux Analyzer (Seahorse Biosciences). Briefly, 1×10^4 MCF7 cells per well were seeded in XF96 plates and incubated with complete medium. When cells were attached, mDIVI-1 and vehicle treatments were added. Six replicates were run for each condition. After 48 hours, un-buffered DMEM XF medium supplemented with 2 mM glutamine (pH 7.4) was added to the cells, and placed in a 37° C. CO2-free incubator for 1 hour. Ten mM glucose, 1 μM oligomycin and 100 mM 2-deoxyglucose (2-DG) were injected into the media at different time points and ECAR was measured. Likewise, ECAR and OCR were quantified using un-buffered DMEM XF medium supplemented with 2 mM glutamine, 2 mM sodium pyruvate and 10 mM glucose. One μM oligomycin, 0.9 μM FCCP and 1 μM rotenone and antimycin A were injected into the media at different time points and OCR and ECAR were measured. Cells were finally lysed with 0.1 M NaOH and protein lysate was subsequently stained with Quick Start™ Bradford 1× Dye Reagent (500-0205, BioRad) to normalise results. All parameters were calculated according to manufacturer.

Hedgehog signaling = assay: Luciferase reporter assay MCF7-GFP-GLI(luc); conditions: 50 μM, 2 and 5 days
From the text: as §1, §2, §3

Q: With `COc1cc(-n2c(S)nc3ccccc3c2=O)c(Cl)cc1Cl` [mDIVI-1, 3-(2,4-Dichloro-5-methoxyphenyl)-2-sulfanyl-4(3H)-quinazolinone] as the compound, how does the “decrease of tumorsphere number” value (MCF7 breast cancer cells; MCF7, 10 μM) read?
A: 50%

Q: What about the “decrease of tumorsphere number” value (MCF7 breast cancer cells; MCF7, 50 μM) of the same compound?
A: 80%

Q: And the “decrease of tumorsphere number” value (MCF7 breast cancer cells; MCF7, 100 μM)?
A: 95%

Q: What about the “binucleated cells (failure of cytokinesis)” value (MCF7 cells [1]; 50 μM, data not shown) of the same compound?
A: increase

Q: And the “cell viability (DAPI) vs vehicle-treated cells” value (MCF7 cells [1]; anchorage-independent conditions)?
A: no significant differences

Q: What about the “Wnt/TCF pathway luciferase activity” value (Wnt signaling) of the same compound?
A: inhibition

Q: And the MCF7 protein content (MCF7 cells [2]; 20 μM)?
A: significantly reduced

Q: And the MCF7 protein content (MCF7 cells [2]; 50 μM)?
A: significantly reduced

Q: And the “basal glycolysis (ECAR)” value (MCF7 cells [3]; 48 hours)?
A: did not have a significant effect

Q: What about the “glycolytic capacity (ECAR)” value (MCF7 cells [3]; 48 hours) of the same compound?
A: reduced

Q: And the “glycolytic reserve (ECAR)” value (MCF7 cells [3]; 48 hours)?
A: reduced

Q: And the “oxygen consumption linked to ATP production” value (MCF7 cells [3]; 48 hours)?
A: significantly reduced

Q: And the “oxygen consumption linked to basal respiration” value (MCF7 cells [3]; 48 hours)?
A: significantly reduced

Q: What about the spare respiratory capacity (MCF7 cells [3]; 48 hours, all mDIVI-1 concentrations) of the same compound?
A: slightly increased

Q: What about the “oxygen consumption linked to maximal respiration” value (MCF7 cells [3]; 48 hours, to a lesser extent, at higher concentrations) of the same compound?
A: significantly reduced

Q: And the OCR/ECAR ratio (MCF7 cells [3]; compared to vehicle)?
A: decreased dose-dependently

Q: What about the “Hedgehog/GLI pathway luciferase activity” value (Hedgehog signaling) of the same compound?
A: inhibition
